Results reported in PubChem BioAssay (NCI).
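96-well plates; 48 h exposure; 5 concentrations. Endpoints by linear interpolation between flanking doses. Not reached: highest tested concentration assigned. GI50: concentration for 50% inhibition of growth. TGI is the concentration that stops growth completely.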

Legend:
Experiment in all cases: NCI tumour cell line growth inhibition, 48 h
NCI-H23 lung = tested on: NCI-H23 lung
OVCAR-3 ovarian = tested on: OVCAR-3 ovarian
SF-539 CNS = tested on: SF-539 CNS
UACC-62 melanoma = tested on: UACC-62 melanoma
HL-60(TB) leukemia = tested on: HL-60(TB) leukemia
UO-31 renal = tested on: UO-31 renal
NCI-H522 lung = tested on: NCI-H522 lung
KM12 colon = tested on: KM12 colon
NCI/ADR-RES ovarian = tested on: NCI/ADR-RES ovarian
A498 renal = tested on: A498 renal

`COC1=CC(=O)c2nc(-c3cccc(C)n3)[nH]c2C1=O` was tested, and the GI50 (NCI-H23 lung) was 28300 nM, the TGI (NCI-H23 lung) was > 100 µM and the GI50 (OVCAR-3 ovarian) was 22900 nM. For the same compound, the TGI (OVCAR-3 ovarian) was 46.4 µM, the GI50 (SF-539 CNS) was 18800 nM and the TGI (SF-539 CNS) was 36.7 µM. For the same compound, the GI50 (UACC-62 melanoma) was 30300 nM, the TGI (UACC-62 melanoma) was > 100 µM and the GI50 (HL-60(TB) leukemia) was 76400 nM. For the same compound, the TGI (HL-60(TB) leukemia) was > 100 µM, the GI50 (UO-31 renal) was 26400 nM and the TGI (UO-31 renal) was > 100 µM. The GI50 (NCI-H522 lung) was 19100 nM, the TGI (NCI-H522 lung) was 59.1 µM and the GI50 (KM12 colon) was 35.4 µM. The TGI (KM12 colon) was > 100 µM, the GI50 (NCI/ADR-RES ovarian) was 32500 nM and the TGI (NCI/ADR-RES ovarian) was > 100 µM. For the same compound, the GI50 (A498 renal) was 16.4 µM and the TGI (A498 renal) was 35.2 µM.

In the case of `NS(=O)(=O)c1ccc(N=Nc2c(O)[nH]c3ccc(-c4cnco4)cc23)cc1`, the GI50 (NCI-H23 lung) is reported as > 25000 nM, the TGI (NCI-H23 lung) is reported as > 25 µM and the GI50 (OVCAR-3 ovarian) is reported as > 25000 nM. The TGI (OVCAR-3 ovarian) was > 25 µM, the GI50 (SF-539 CNS) was > 25000 nM and the TGI (SF-539 CNS) was > 25 µM. For the same compound, the GI50 (UACC-62 melanoma) was > 25000 nM, the TGI (UACC-62 melanoma) was > 25 µM and the GI50 (HL-60(TB) leukemia) was > 25000 nM. The TGI (HL-60(TB) leukemia) was > 25 µM, the GI50 (UO-31 renal) was > 25000 nM and the TGI (UO-31 renal) was > 25 µM. For the same compound, the GI50 (NCI-H522 lung) was > 6680 nM, the TGI (NCI-H522 lung) was > 25 µM and the GI50 (KM12 colon) was 6.86 µM. The TGI (KM12 colon) was > 23.9 µM, the GI50 (NCI/ADR-RES ovarian) was > 25000 nM and the TGI (NCI/ADR-RES ovarian) was > 25 µM. For the same compound, the GI50 (A498 renal) was > 25 µM and the TGI (A498 renal) was > 25 µM.

`COC(C(O)CO)C(O)C(O)C(=O)NNc1ccccc1` (stereo not given) was tested, and the TGI (NCI-H23 lung) was > 100 µM, the TGI (OVCAR-3 ovarian) was > 100 µM and the TGI (SF-539 CNS) was 98.3 µM. For the same compound, the TGI (UACC-62 melanoma) was > 100 µM, the TGI (HL-60(TB) leukemia) was > 100 µM and the TGI (UO-31 renal) was > 100 µM. For the same compound, the TGI (NCI-H522 lung) was > 100 µM, the TGI (KM12 colon) was > 100 µM and the TGI (NCI/ADR-RES ovarian) was > 100 µM. The TGI (A498 renal) was > 100 µM.

In the case of `COc1ccccc1CNCCCN1C(=O)c2ccc3c4c(ccc(c24)C1=O)C(=O)N(CCCOCCCCOCCCN)C3=O`, the GI50 (NCI-H23 lung) is reported as 604 nM, the TGI (NCI-H23 lung) is reported as 2.58 µM and the GI50 (OVCAR-3 ovarian) is reported as 297 nM. It also gave a TGI (OVCAR-3 ovarian) of 0.754 µM, a GI50 (SF-539 CNS) of 1680 nM and a TGI (SF-539 CNS) of 3.3 µM. For the same compound, the GI50 (UACC-62 melanoma) was 645 nM, the TGI (UACC-62 melanoma) was 1.96 µM and the GI50 (HL-60(TB) leukemia) was 668 nM. For the same compound, the TGI (HL-60(TB) leukemia) was 2.06 µM, the GI50 (UO-31 renal) was 1550 nM and the TGI (UO-31 renal) was 3.15 µM. The GI50 (NCI-H522 lung) was 802 nM, the TGI (NCI-H522 lung) was 2.18 µM and the GI50 (KM12 colon) was 1.26 µM. It also gave a TGI (KM12 colon) of 2.79 µM, a GI50 (NCI/ADR-RES ovarian) of 1460 nM and a TGI (NCI/ADR-RES ovarian) of 4.37 µM. For the same compound, the GI50 (A498 renal) was 1.3 µM and the TGI (A498 renal) was 2.7 µM.

With `O=C(O)C1OC(n2cc(F)c(=O)[nH]c2=O)CC1O` (stereo not given) the TGI (NCI-H23 lung) was > 100 µM, the TGI (OVCAR-3 ovarian) was > 100 µM and the TGI (SF-539 CNS) was 26.2 µM. For the same compound, the TGI (UACC-62 melanoma) was > 80.5 µM, the TGI (HL-60(TB) leukemia) was > 100 µM and the TGI (UO-31 renal) was > 100 µM. For the same compound, the TGI (NCI-H522 lung) was > 100 µM, the TGI (KM12 colon) was > 100 µM and the TGI (NCI/ADR-RES ovarian) was > 100 µM. The TGI (A498 renal) was > 100 µM.

`O=C(N/N=C/c1ccc(Cl)cc1)c1ccc(C(F)(F)F)nc1Nc1cccc(C(F)(F)F)c1` was tested, and the GI50 (NCI-H23 lung) was 2310 nM, the TGI (NCI-H23 lung) was 8.74 µM and the GI50 (OVCAR-3 ovarian) was 1110 nM. It also gave a TGI (OVCAR-3 ovarian) of 6.9 µM, a GI50 (SF-539 CNS) of 2110 nM and a TGI (SF-539 CNS) of 6.69 µM. It also gave a GI50 (UACC-62 melanoma) of 2390 nM, a TGI (UACC-62 melanoma) of 6.15 µM and a GI50 (HL-60(TB) leukemia) of 1450 nM. The TGI (HL-60(TB) leukemia) was 5.69 µM, the GI50 (UO-31 renal) was 1660 nM and the TGI (UO-31 renal) was 5.42 µM. For the same compound, the GI50 (NCI-H522 lung) was 2800 nM, the TGI (NCI-H522 lung) was 10.7 µM and the GI50 (KM12 colon) was 2.31 µM. For the same compound, the TGI (KM12 colon) was 8.4 µM, the GI50 (NCI/ADR-RES ovarian) was 1960 nM and the TGI (NCI/ADR-RES ovarian) was 6.99 µM. It also gave a GI50 (A498 renal) of 2.24 µM and a TGI (A498 renal) of 8.69 µM.

Compound `O=C(NC1=CC(=O)c2ccccc2C1=O)c1ccccc1` has a GI50 (NCI-H23 lung) of 1120 nM, a TGI (NCI-H23 lung) of 9.5 µM and a GI50 (OVCAR-3 ovarian) of 685 nM. For the same compound, the TGI (OVCAR-3 ovarian) was 2.01 µM, the GI50 (SF-539 CNS) was 284 nM and the TGI (SF-539 CNS) was 0.913 µM. It also gave a GI50 (UACC-62 melanoma) of 240 nM, a TGI (UACC-62 melanoma) of 0.799 µM and a GI50 (HL-60(TB) leukemia) of 639 nM. It also gave a TGI (HL-60(TB) leukemia) of 2.53 µM, a GI50 (UO-31 renal) of 481 nM and a TGI (UO-31 renal) of 2.18 µM. It also gave a GI50 (NCI-H522 lung) of 702 nM, a TGI (NCI-H522 lung) of 2.76 µM and a GI50 (KM12 colon) of 0.353 µM. The TGI (KM12 colon) was 11.5 µM, the GI50 (NCI/ADR-RES ovarian) was 1260 nM and the TGI (NCI/ADR-RES ovarian) was 14.9 µM. For the same compound, the GI50 (A498 renal) was 4.46 µM and the TGI (A498 renal) was 17.5 µM.

Compound `COC(=O)[C@H](C)NC(=O)NC(=O)NC(=O)CI` has a GI50 (NCI-H23 lung) of 16800 nM, a TGI (NCI-H23 lung) of 36.9 µM and a GI50 (OVCAR-3 ovarian) of 12300 nM. The TGI (OVCAR-3 ovarian) was 25.2 µM, the GI50 (SF-539 CNS) was 15900 nM and the TGI (SF-539 CNS) was 30.3 µM. It also gave a GI50 (UACC-62 melanoma) of 16800 nM, a TGI (UACC-62 melanoma) of 34.2 µM and a GI50 (HL-60(TB) leukemia) of 2150 nM. For the same compound, the TGI (HL-60(TB) leukemia) was 4.51 µM, the GI50 (UO-31 renal) was 6830 nM and the TGI (UO-31 renal) was 20.1 µM. For the same compound, the GI50 (NCI-H522 lung) was 1960 nM, the TGI (NCI-H522 lung) was 3.68 µM and the GI50 (KM12 colon) was 17.8 µM. It also gave a TGI (KM12 colon) of 35.5 µM, a GI50 (NCI/ADR-RES ovarian) of 19100 nM and a TGI (NCI/ADR-RES ovarian) of 43 µM. For the same compound, the GI50 (A498 renal) was 15.4 µM and the TGI (A498 renal) was 30.4 µM.

With `N#C/C(=C1C=C(Br)/C(=N\O)C=C\1Cl)c1cccc2ccccc12` the TGI (NCI-H23 lung) was 36.3 µM, the TGI (OVCAR-3 ovarian) was 9.39 µM and the TGI (SF-539 CNS) was 4.52 µM. The TGI (UACC-62 melanoma) was 15.8 µM, the TGI (HL-60(TB) leukemia) was 11.6 µM and the TGI (UO-31 renal) was 24.1 µM. For the same compound, the TGI (NCI-H522 lung) was 6.47 µM, the TGI (KM12 colon) was 19.4 µM and the TGI (NCI/ADR-RES ovarian) was > 100 µM. For the same compound, the TGI (A498 renal) was 21.5 µM.
